What all share (test): ≥ marks a high value that may be exact or a test limit, other limits are often not marked, values filed in µg/mL are converted to µM
The subject of assay [1] is Candida albicans ATCC 37092.
Assay [2] has as its system Escherichia coli ATCC 25922.
For assay [3], the system named is Staphylococcus aureus ATCC 29213.
Assay [4] relates to Acinetobacter baumannii NM109.
Assay [5] relates to Acinetobacter baumannii NM124.
The test system of assay [6] is Acinetobacter baumannii NM35.
Assay [7] concerns Acinetobacter baumannii NM75.
Assay [8] concerns Acinetobacter baumannii NM8.
Assay [9] concerns Candida albicans ATCC 90028.
Assay [10] has as its system Enterococcus faecalis ATCC 29212.
Assay [11] deals with Escherichia coli ATCC 25726.
Assay [12] has as its system Klebsiella pneumoniae ATCC 700603.
Assay [13] deals with Pseudomonas aeruginosa ATCC 27853.
Assay [14] relates to Staphylococcus aureus 127/08.
Assay [15] has as its system Staphylococcus aureus 145/08.
Assay [16] concerns Staphylococcus aureus 274/08.
The test system of assay [17] is Staphylococcus aureus ATCC 25923.
Assay [18] concerns Staphylococcus aureus S908.
Assay [19] concerns Staphylococcus aureus T4/6.
In assay [20] the test system is Staphylococcus aureus V4180.
Assay [21] concerns Staphylococcus epidermidis RP62A/1.
Assay [22] concerns Staphylococcus epidermidis RP62A.
The subject of assay [23] is Staphylococcus epidermidis T37/8.
Assay [24] concerns Staphylococcus epidermidis T6/19.
The test system of assay [25] is Stenotrophomonas maltophilia B32/1.
The test system of assay [26] is Stenotrophomonas maltophilia B32/4.
Assay [27] deals with Stenotrophomonas maltophilia B5/5.
The subject of assay [28] is Stenotrophomonas maltophilia B6/2.
The subject of assay [29] is Stenotrophomonas maltophilia U8908.
Assay [30] deals with Acinetobacter baumannii.
Assay [31] deals with Enterobacter cloacae 2524.
In assay [32] the test system is Enterobacter cloacae 6780.
Assay [33] relates to Escherichia coli 170.
Assay [34] relates to Escherichia coli 4530.
For assay [35], the system named is Klebsiella pneumoniae 1625.
In assay [36] the test system is Klebsiella pneumoniae 913.
For assay [37], the system named is Pseudomonas aeruginosa 4677.
Assay [38] has as its system Salmonella typhimurium.
The test system of assay [39] is Streptococcus pneumoniae ATCC 49619.
For assay [40], the system named is Escherichia coli 363.
Assay [41] concerns Staphylococcus aureus.
Assay [42] has as its system Klebsiella pneumoniae ATCC 13883.
Assay [43] deals with Listeria monocytogenes ATCC 19115.
Assay [44] relates to Salmonella enterica subsp. enterica serovar Enteritidis ATCC 13076.
The test system of assay [45] is Staphylococcus aureus ATCC 43300.
Assay [46] concerns Staphylococcus aureus ATCC BAA-39.

≈ marks a conversion by molar mass, not a printed value. Where “and” joins values, the source holds several entries; their conditions need not be identical. Identical values can stand only once. Bounds are passed on as bounds.

Consider `CC[C@H](C)[C@H](NC(=O)[C@@H]1CCCN1C(=O)[C@H](CCCN=C(N)N)NC(=O)[C@@H]1CCCN1C(=O)CNC(=O)[C@@H]1CCCN1C(=O)[C@H](CCCN=C(N)N)NC(=O)[C@@H]1CCCN1C(=O)[C@H](Cc1ccccc1)NC(=O)[C@@H]1CCCN1C(=O)[C@H](CC(C)C)NC(=O)[C@@H]1CCCN1)C(=O)N1CCC[C@H]1C(=O)N[C@@H](CCCN=C(N)N)C(=O)N1CCC[C@H]1C(=O)O` [PLPFPRPGPRPIPRP], for which the values for the minimal inhibitory concentration (MIC) in [1], in assay [2] and in assay [3] were 30.5 µM (≈ 51.7 µg/mL), more than 500 µM and more than 500 µM, respectively.
`CC[C@H](C)[C@H](NC(=O)[C@H](C)NC(=O)[C@H](CCCCN)NC(=O)CNC(=O)[C@@H](NC(=O)[C@H](Cc1cnc[nH]1)NC(=O)CNC(=O)[C@H](CC(C)C)NC(=O)[C@H](CC(C)C)NC(=O)[C@@H](NC(=O)CNC(=O)[C@@H](NC(=O)[C@H](CC(C)C)NC(=O)CN)C(C)C)[C@@H](C)O)[C@@H](C)CC)C(=O)N[C@@H](CC(C)C)C(=O)NCC(=O)O` [GLVGTLLGHIGKAILG]: the MIC in assay [4], in assay [5], in assay [6], in assay [7], in [8] and in assay [9] was not below 250 µM in each case. Besides, the MIC – broadly, the lowest concentration that inhibits growth of the organism – is 250 µM (≈ 380 µg/mL) in [10]; not below 250 µM in [11]; more than 250 µM in assay [12]; more than 250 µM in assay [13]; not below 125 µM in assay [14]; not below 250 µM in assay [15]. For the same compound, the MIC was not below 250 µM in [16]; 125 µM (≈ 190 µg/mL) in assay [17]; not below 125 µM in assay [18]; not below 250 µM in assay [19]; not below 250 µM in assay [20]; not below 125 µM in assay [21]. Moreover, the MIC in assay [22] is not below 125 µM; in assay [23], not below 250 µM; in assay [24], not below 125 µM; in assay [25], not below 250 µM; in assay [26] it was not below 250 µM; in [27], not below 250 µM. Also, the MIC in [28] and in [29] was not below 250 µM throughout.
Take `CC[C@H](C)[C@H](NC(=O)CN)C(=O)N[C@@H](CC(C)C)C(=O)N[C@@H](CC(N)=O)C(=O)N[C@H](C(=O)N[C@H](C(=O)N[C@@H](CCCCN)C(=O)N[C@@H](CO)C(=O)N[C@H](C(=O)N[C@@H](C)C(=O)N[C@@H](CO)C(=O)N[C@@H](CCCCN)C(=O)N[C@@H](CC(C)C)C(=O)N[C@@H](CCCCN)C(=O)N[C@@H](CCCN=C(N)N)C(=O)N[C@@H](CCCCN)C(=O)N[C@@H](C)C(=O)N[C@@H](CCCCN)C(=O)O)[C@@H](C)CC)[C@@H](C)CC)[C@@H](C)O` [GILNTIKSIASKLKRKAK]: the minimum inhibitory concentration (MIC) is 2.21 µM (≈ 4.35 µg/mL) in [30]; not below 50 µM in assay [31]; 3.12 µM (≈ 6.14 µg/mL) in assay [32]; 1.56 µM (≈ 3.07 µg/mL) in assay [33]; not below 50 µM in assay [34]; 1.56 µM (≈ 3.07 µg/mL) in assay [2]. The minimum inhibitory concentration (MIC) in assay [35] is 3.12 µM (≈ 6.14 µg/mL); in assay [36] it was 6.25 µM (≈ 12.3 µg/mL); in assay [37], not below 50 µM; in assay [38] it was 4.38 µM (≈ 8.63 µg/mL); in [39] it was not below 50 µM.
With `CC(C)C[C@H](NC(=O)[C@H](CCCN=C(N)N)NC(=O)[C@H](CCCN=C(N)N)NC(=O)[C@H](CC(C)C)NC(=O)[C@H](CC(C)C)NC(=O)[C@H](CCCN=C(N)N)NC(=O)[C@H](CCCN=C(N)N)NC(=O)[C@H](CC(C)C)NC(=O)[C@H](CC(C)C)NC(=O)[C@H](CCCN=C(N)N)NC(=O)[C@H](CCCN=C(N)N)NC(=O)[C@H](CC(C)C)NC(=O)[C@H](CCCN=C(N)N)NC(=O)[C@@H](N)CCCN=C(N)N)C(=O)N[C@@H](CCCN=C(N)N)C(=O)N[C@@H](CCCN=C(N)N)C(N)=O` [RRLRRLLRRLLRRLRR], the MIC is not below 50 µM in assay [40] and 9 µM (≈ 20.3 µg/mL) in [41].
Regarding `CC[C@H](C)[C@H](NC(=O)[C@H](CCCCN)NC(=O)[C@H](CCCN=C(N)N)NC(=O)[C@H](CC(C)C)NC(=O)[C@H](Cc1ccccc1)NC(=O)[C@H](CCCN=C(N)N)NC(=O)CNC(=O)[C@H](Cc1ccccc1)NC(=O)[C@H](CCCN=C(N)N)NC(=O)CNC(=O)[C@H](CCCN=C(N)N)NC(=O)[C@H](CCC(N)=O)NC(=O)[C@@H](NC(=O)[C@@H](N)CC(C)C)C(C)C)C(=O)N[C@@H](CCCN=C(N)N)C(=O)N[C@@H](CCCN=C(N)N)C(=O)N[C@@H](Cc1ccccc1)C(=O)N[C@@H](CCCN=C(N)N)C(=O)O` [LVQRGRFGRFLRKIRRFR], the MIC in assay [2] was 4 µM and 5.66 µM; in assay [42], 2 µM (≈ 4.72 µg/mL); in assay [43] it was 2 µM (≈ 4.72 µg/mL); in [44], 2 µM (≈ 4.72 µg/mL); in assay [17] it was 2 µM (≈ 4.72 µg/mL); in [45], 2 µM (≈ 4.72 µg/mL). In assay [46], the minimal inhibitory concentration (MIC) is 2 µM and 2.83 µM.

(Values after DBAASP.)
